From patent publication US11318140B2, “Use of TRPV4 antagonists to ameliorate hydrocephalus and related materials and methods” (Indiana University Research and Technology Corporation, priority 2012, dated 2022)
“Also recorded” adds a separate entry of the source.

Experiments:
Assay type in all cases: in vivo, rat
[1] = system: Wistar Wpk/Wpk rats; test: Renal pathology (kidney weight) in Wpk/Wpk rats; conditions: day 8 through 17
Description: (§1) Wistar Wpk/Wpk rats are an orthologous model of human type 3 Meckel Syndrome. Meckel Syndrome is a cilliopathology with both renal cystic and brain pathology. The brain pathology is severe hydrocephalus with hypoplasia of the corpus callosum.
(§2) The inventors treated Wpk/Wpk affected as well as noncystic littermates with either TRPV4 agonist (GSK1016797, 0.003 mg/kg body weight) or antagonist (HC067047, 0.03 mg/kg) from day 8 through 17 and evaluated the cranial enlargement and cerebral manifestations. Both drugs were dissolved in DMSO prior to dilution with normal saline prior to injection (i.p.).
(§3) Wpk/Wpk affected as well as noncystic littermates were treated with TRPV4 antagonist RN-1734 from day 8 through 17 and evaluated the kidney weight and cerebral manifestations (bitemporal head diameter and vertical head dimensions/cranial height). Both drugs were dissolved in DMSO prior to dilution with normal saline prior to injection (i.p.).

[2] = system: Wistar Wpk/Wpk rats; test: Hydrocephalic cranial/head enlargement in Wpk/Wpk rats; conditions: day 8 through 17
Description: as §1, §2, §3

[3] = system: Wpk/Wpk hydrocephalic rats; test: Cortical thickness from coronal sections of Wpk/Wpk hydrocephalic rats; conditions: 0.03 mg/kg body weight, day 8-17; measured at day 17; p<0.0001
Source text: as §1
Cortical thickness measured from coronal sections of Wpk/Wpk hydrocephalic rats at day 17. […] This finding is in agreement with the decreased degree of hydrocephalus in the antagonist treated animals and, therefore, have a decreased loss in cerebral cortex.

[4] = Example 3: i.p., dose not given

Structure (SMILES)	renal pathology ([1]; Example 2: agonist 0.003 mg/kg, antagonist 0.03 mg/kg, i.p.)	activity and alertness of treated rats ([2]; 0.03 mg/kg i.p.)	head dimensions, treated affected rats versus normal littermates ([2]; 0.03 mg/kg i.p.)	hydrocephalic enlargement of the cranium/brain (head measurements) ([2]; 0.03 mg/kg i.p., affected Wpk/Wpk rats)	cortical thickness [3]	renal pathology (kidney weight) [1, 4]	activity and alertness of treated rats [2, 4]	head dimensions, treated affected rats versus normal littermates [2, 4]	hydrocephalic enlargement of the cranium/brain (bitemporal head diameter, vertical head dimension) [2, 4]
Cc1c(C(=O)Nc2cccc(C(F)(F)F)c2)cc(-c2ccccc2)n1CCCN1CCOCC1 [HC067047]	did not affect the renal pathology	very active and alert like their nonaffected littermates	no difference in head dimensions	almost totally ameliorate; also recorded: significantly less hydrocephalic head measurements	increased cortical thickness				
CC(C)NCCN(C(C)C)S(=O)(=O)c1ccc(Cl)cc1Cl [RN-1734]						did not affect the renal pathology	very active and alert like their nonaffected littermates	no difference in head dimensions	almost totally ameliorate
